For six compounds, IC50 results are on record in PubChem BioAssay AID588566 (The Scripps Research Institute Molecular Screening Center, 2011).

The target in the assay is Neuropeptides B/W receptor type 1 (Homo sapiens) (UniProt P48145). The assay is described as follows: human NPBW1 receptor blockade, IC50 – cell-based, fluorescence, dose response, set 5, late-stage follow-up (AID 588566). The conditions noted are these: GPR7-expressing cells, fluorescence antagonist assay.
Chain of Neuropeptides B/W receptor type 1 (Homo sapiens) (P48145 whole entry, looked up): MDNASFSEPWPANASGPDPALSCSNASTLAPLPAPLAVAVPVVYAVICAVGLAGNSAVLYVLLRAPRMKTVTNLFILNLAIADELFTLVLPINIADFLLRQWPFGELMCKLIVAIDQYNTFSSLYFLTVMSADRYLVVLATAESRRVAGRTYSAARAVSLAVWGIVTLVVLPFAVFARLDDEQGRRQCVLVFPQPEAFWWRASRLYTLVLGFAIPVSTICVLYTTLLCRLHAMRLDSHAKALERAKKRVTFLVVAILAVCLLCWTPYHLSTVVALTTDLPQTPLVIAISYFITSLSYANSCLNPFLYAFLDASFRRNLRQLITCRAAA

Consider `COc1ccc(Oc2c(Cl)cnn(-c3nc4ccccc4c(=O)c4ccccc34)c2=O)cc1`, for which the IC50 is 2210 nM. On to `O=c1c(Oc2ccc3c(c2)CCC3)c(Cl)cnn1Cc1cccc2ccccc12`, for which the IC50 is 834 nM. On to `CCc1cccc(Oc2c(Cl)cnn(Cc3cccc4ccccc34)c2=O)c1`, for which the IC50 was 8550 nM. On to `COc1ccc(Oc2c(Cl)cnn(C3=Nc4cc(Cl)ccc4Oc4ncccc43)c2=O)cc1`, for which the IC50 was 527 nM.

In the case of `COc1cc(Oc2c(Cl)cnn(Cc3cccc4ccccc34)c2=O)cc(OC)c1OC`, the IC50 was 1790 nM. In the case of `COc1ccc(Oc2c(Cl)cnn(C3c4ccccc4Oc4ccccc43)c2=O)cc1` it was 3110 nM.
